# Assay results taken from PubChem BioAssay AID192 (DTP/NCI, 2004).
# Where “and” joins values, the source holds several entries; their conditions need not be identical. Equal entries are not always repeated. Toxic doses and inconclusive results are not listed.
# Test system: BDF1 mice, B16 melanoma ip, median survival T/C
# Assay: NCI In Vivo Anticancer Drug Screen. Data for tumor model B16 Melanoma (intraperitoneal) in B6D2F1 (BDF1) mice
# Settings: endpoint: median survival time, higher = longer survival
# Method in brief: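 Antitumor activity is assessed in mice bearing a transplanted tumor, with survival or tumor size compared against vehicle-dosed controls and expressed as T/C.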
# [1] = dose: 0.75 mg/kg/injection, schedule: Q01DX009 (ip), vehicle: Klucel (hydroxypropylcellulose) (HPC)
# [2] = dose: 25.0 mg/kg/injection, schedule: Q01DX009 (ip), vehicle: Klucel (hydroxypropylcellulose) (HPC)
# [3] = dose: 25.0 mg/kg/injection, schedule: Q01DX009 (ip), vehicle: saline with Tween-80
# [4] = dose: 50.0 mg/kg/injection, schedule: Q01DX009 (ip), vehicle: Klucel (hydroxypropylcellulose) (HPC)
# [5] = dose: 50.0 mg/kg/injection, schedule: Q01DX009 (ip), vehicle: saline with Tween-80
# [6] = dose: 100.0 mg/kg/injection, schedule: Q01DX009 (ip), vehicle: Klucel (hydroxypropylcellulose) (HPC)
# [7] = dose: 100.0 mg/kg/injection, schedule: Q01DX009 (ip), vehicle: saline with Tween-80
# [8] = dose: 0.8 mg/kg/injection, schedule: Q01DX009 (ip), vehicle: saline with Tween-80
# [9] = dose: 6.25 mg/kg/injection, schedule: Q01DX009 (ip), vehicle: saline with Tween-80
# [10] = dose: 12.5 mg/kg/injection, schedule: Q01DX009 (ip), vehicle: Klucel (hydroxypropylcellulose) (HPC)
# [11] = dose: 12.5 mg/kg/injection, schedule: Q01DX009 (ip), vehicle: saline with Tween-80
# [12] = dose: 3.13 mg/kg/injection, schedule: Q01DX009 (ip), vehicle: saline with Tween-80
smiles,measurement,setting,value
CCS/C(SC)=C(/c1ccccc1)[P+](c1ccccc1)(c1ccccc1)c1ccccc1,T/C,"dose: 0.19 mg/kg/injection, schedule: Q01DX009 (ip), vehicle: Klucel (hydroxypropylcellulose) (HPC)",99 % of control
same,T/C,"dose: 0.38 mg/kg/injection, schedule: Q01DX009 (ip), vehicle: Klucel (hydroxypropylcellulose) (HPC)",99 % of control
same,T/C,[1],100 % of control
same,T/C,"dose: 1.5 mg/kg/injection, schedule: Q01DX009 (ip), vehicle: Klucel (hydroxypropylcellulose) (HPC)",95 % of control and 106 % of control
O=C(CBr)c1ccc(I)cc1,T/C,"dose: 1.25 mg/kg/injection, schedule: Q01DX009 (ip), vehicle: saline with Tween-80",90 % of control
same,T/C,"dose: 2.5 mg/kg/injection, schedule: Q01DX009 (ip), vehicle: saline with Tween-80",102 % of control
same,T/C,"dose: 5.0 mg/kg/injection, schedule: Q01DX009 (ip), vehicle: saline with Tween-80",95 % of control
same,T/C,"dose: 10.0 mg/kg/injection, schedule: Q01DX009 (ip), vehicle: saline with Tween-80",95 % of control
same,T/C,"dose: 20.0 mg/kg/injection, schedule: Q01DX009 (ip), vehicle: saline with Tween-80",88 % of control
CCC(C)Nc1ccc(N)cc1 (stereo not given),T/C,"dose: 0.09 mg/kg/injection, schedule: Q01DX009 (ip), vehicle: Klucel (hydroxypropylcellulose) (HPC)",97 % of control
same,T/C,"dose: 0.18 mg/kg/injection, schedule: Q01DX009 (ip), vehicle: Klucel (hydroxypropylcellulose) (HPC)",99 % of control
same,T/C,"dose: 0.37 mg/kg/injection, schedule: Q01DX009 (ip), vehicle: Klucel (hydroxypropylcellulose) (HPC)",89 % of control
same,T/C,[1],99 % of control
CCCn1c(=S)[nH]c2ccccc2c1=O,T/C,[2],120 % of control
same,T/C,[3],100 % of control
same,T/C,[4],100 % of control
same,T/C,[5],92 % of control
same,T/C,"dose: 66.0 mg/kg/injection, schedule: Q01DX009 (ip), vehicle: saline with Tween-80",100 % of control
same,T/C,[6],86 % of control and 102 % of control
same,T/C,[7],87 % of control and 94 % of control
same,T/C,"dose: 150.0 mg/kg/injection, schedule: Q01DX009 (ip), vehicle: saline with Tween-80",86 % of control
COc1cc(C=Nc2cccc(Br)c2)ccc1N(CCCl)CCCl,T/C,[8],113 % of control
same,T/C,"dose: 1.56 mg/kg/injection, schedule: Q01DX009 (ip), vehicle: Klucel (hydroxypropylcellulose) (HPC)",113 % of control
same,T/C,"dose: 3.12 mg/kg/injection, schedule: Q01DX009 (ip), vehicle: Klucel (hydroxypropylcellulose) (HPC)",115 % of control
same,T/C,[9],164 % of control
same,T/C,[10],163 % of control
same,T/C,[11],158 % of control
O=C(CC(O)(C(F)(F)Cl)C(F)(F)Cl)c1ccco1,T/C,[3],100 % of control
same,T/C,[5],100 % of control
same,T/C,[7],105 % of control
Cc1cccc(NS(=O)(=O)c2ccc(Cl)cc2)c1C,T/C,"dose: 75.0 mg/kg/injection, schedule: Q01DX009 (ip), vehicle: Klucel (hydroxypropylcellulose) (HPC)",91 % of control
same,T/C,"dose: 150.0 mg/kg/injection, schedule: Q01DX009 (ip), vehicle: Klucel (hydroxypropylcellulose) (HPC)",95 % of control
same,T/C,"dose: 300.0 mg/kg/injection, schedule: Q01DX009 (ip), vehicle: Klucel (hydroxypropylcellulose) (HPC)",90 % of control
CCN(CC)CCOc1cc(C)ccc1C(C)C,T/C,[4],111 % of control
same,T/C,"dose: 50.0 mg/kg/injection, schedule: Q04DX003 (ip), vehicle: Klucel (hydroxypropylcellulose) (HPC)",95 % of control
same,T/C,"dose: 100.0 mg/kg/injection, schedule: Q04DX003 (ip), vehicle: Klucel (hydroxypropylcellulose) (HPC)",97 % of control
same,T/C,"dose: 200.0 mg/kg/injection, schedule: Q04DX003 (ip), vehicle: Klucel (hydroxypropylcellulose) (HPC)",86 % of control
C=C/C(C)=C/[C@H](C)C(=O)C[C@H](O)CC1CC(=O)NC(=O)C1,T/C,[9],121 % of control
same,T/C,[11],109 % of control
same,T/C,[3],121 % of control
same,T/C,[7],121 % of control
O=C1C(F)=C(N2CC2)C(=O)C(N2CCOCC2)=C1N1CC1,T/C,"dose: 0.75 mg/kg/injection, schedule: Q01DX009 (ip), vehicle: saline",118 % of control
same,T/C,"dose: 1.5 mg/kg/injection, schedule: Q01DX009 (ip), vehicle: saline",108 % of control
same,T/C,"dose: 3.0 mg/kg/injection, schedule: Q01DX009 (ip), vehicle: saline",100 % of control
CCc1cc2c(cc1C(=O)CBr)C(C)(C)CCC2(C)C,T/C,[12],100 % of control
same,T/C,[9],94 % of control
same,T/C,[11],92 % of control and 99 % of control
same,T/C,[3],94 % of control
Cc1ccc2c([N+](=O)[O-])cccc2n1,T/C,[2],107 % of control
same,T/C,[4],93 % of control
same,T/C,[6],98 % of control
CCCCCCCCCCCCCCCCC(C(=O)O)C(O)(CC(=O)O)C(=O)O (stereo not given),T/C,[10],101 % of control
same,T/C,[2],90 % of control
O=C(CC(=O)C(F)(F)C(F)(F)C(F)(F)F)c1csc2ccccc12,T/C,[3],97 % of control
same,T/C,[5],100 % of control
same,T/C,[7],92 % of control
Cc1ccc(C(C)(C)Cl)cc1O,T/C,[11],117 % of control
same,T/C,[3],112 % of control
same,T/C,[5],96 % of control
CCN(CC)CCNc1ccc(C)c2sc3ccccc3c(=O)c12,T/C,"dose: 6.25 mg/kg/injection, schedule: Q01DX009 (ip), vehicle: suspension in saline",103 % of control
same,T/C,"dose: 12.5 mg/kg/injection, schedule: Q01DX009 (ip), vehicle: suspension in saline",105 % of control
same,T/C,"dose: 25.0 mg/kg/injection, schedule: Q01DX009 (ip), vehicle: suspension in saline",103 % of control
same,T/C,"dose: 50.0 mg/kg/injection, schedule: Q01DX009 (ip), vehicle: suspension in saline",102 % of control
same,T/C,"dose: 100.0 mg/kg/injection, schedule: Q01DX009 (ip), vehicle: suspension in saline",120 % of control
Cc1cc2nc(CBr)c(CBr)nc2cc1C,T/C,"dose: 0.1 mg/kg/injection, schedule: Q01DX009 (ip), vehicle: saline with Tween-80",86 % of control
same,T/C,"dose: 0.2 mg/kg/injection, schedule: Q01DX009 (ip), vehicle: saline with Tween-80",86 % of control
same,T/C,"dose: 0.4 mg/kg/injection, schedule: Q01DX009 (ip), vehicle: saline with Tween-80",92 % of control
same,T/C,"dose: 0.75 mg/kg/injection, schedule: Q01DX009 (ip), vehicle: saline with Tween-80",107 % of control
same,T/C,[8],94 % of control
same,T/C,"dose: 1.5 mg/kg/injection, schedule: Q01DX009 (ip), vehicle: saline with Tween-80",97 % of control
same,T/C,"dose: 3.0 mg/kg/injection, schedule: Q01DX009 (ip), vehicle: saline with Tween-80",97 % of control
same,T/C,"dose: 6.0 mg/kg/injection, schedule: Q01DX009 (ip), vehicle: saline with Tween-80",89 % of control
CC(=O)C1=C(O)C2(O)C(=O)c3c(c(C)c4ccc(C)c(O)c4c3O)CC2C(N)C1=O (stereo not given),T/C,"dose: 1.56 mg/kg/injection, schedule: Q01DX009 (ip), vehicle: saline with Tween-80",100 % of control
same,T/C,[12],95 % of control
same,T/C,"dose: 3.75 mg/kg/injection, schedule: Q01DX009 (ip), vehicle: saline + alcohol",103 % of control
same,T/C,[9],100 % of control
same,T/C,"dose: 7.5 mg/kg/injection, schedule: Q01DX009 (ip), vehicle: saline + alcohol",105 % of control
same,T/C,"dose: 15.0 mg/kg/injection, schedule: Q01DX009 (ip), vehicle: saline + alcohol",114 % of control
CCOc1ccnc(OCC)n1,T/C,[3],96 % of control
same,T/C,[5],101 % of control
same,T/C,[7],99 % of control
Cc1c2ccc3ccccc3c2c[n+]2ccccc12,T/C,"dose: 1.25 mg/kg/injection, schedule: Q01DX009 (ip), vehicle: Klucel (hydroxypropylcellulose) (HPC)",98 % of control
same,T/C,"dose: 2.5 mg/kg/injection, schedule: Q01DX009 (ip), vehicle: Klucel (hydroxypropylcellulose) (HPC)",98 % of control
same,T/C,"dose: 5.0 mg/kg/injection, schedule: Q01DX009 (ip), vehicle: Klucel (hydroxypropylcellulose) (HPC)",111 % of control
same,T/C,"dose: 10.0 mg/kg/injection, schedule: Q01DX009 (ip), vehicle: Klucel (hydroxypropylcellulose) (HPC)",108 % of control
same,T/C,"dose: 20.0 mg/kg/injection, schedule: Q01DX009 (ip), vehicle: Klucel (hydroxypropylcellulose) (HPC)",102 % of control
c1ccc(OCCC[P+](c2ccccc2)(c2ccccc2)c2ccccc2)cc1,T/C,"dose: 5.0 mg/kg/injection, schedule: Q01DX009 (ip), vehicle: saline",107 % of control
same,T/C,"dose: 10.0 mg/kg/injection, schedule: Q01DX009 (ip), vehicle: saline",105 % of control
same,T/C,"dose: 20.0 mg/kg/injection, schedule: Q01DX009 (ip), vehicle: saline",95 % of control
same,T/C,"dose: 40.0 mg/kg/injection, schedule: Q01DX009 (ip), vehicle: saline",97 % of control
